{"source": "patent US8927532B2", "about": "“Therapeutic agent and diagnostic agent for mitochondrial dysfunction brain diseases” (SBI Pharmaceuticals Co., Ltd., priority 2007, dated 2015)", "system": "middle cerebral artery-occluded model rats", "test": "Fluorescence observation of brain disease site in cerebral infarction model rats", "format": "in vivo, rat", "details": "100 mg/kg i.p., 4 hours after administration", "method": "After 6 hours, 12 hours, 24 hours, and 42 hours from the preparation of middle cerebral artery-occluded model rats, δ-aminolevulinic acid hydrochloride was dissolved in physiological saline and intraperitoneally administered to the individual model rats in an amount of 100 mg/kg-body weight of rat. […] Moreover, it was confirmed that the red light site was in a cerebral infarction state.", "data": [{"smiles": "Cl.NCC(=O)CCC(=O)O", "note": "[δ-aminolevulinic acid hydrochloride]", "values": [{"measurement": "metabolism to protoporphyrin IX in the brain", "value": "metabolized and converted into protoporphyrin IX"}]}]}
